{"source": "patent US7582301B1", "about": "“Long-lasting antiviral fusion inhibitor peptide conjugates comprising albumin and human immunodeficiency virus (HIV) peptides” (Conjuchem Biotechnologies, Inc., priority 2000, dated 2009)", "origin": "cited, not measured here", "data": [{"tested_on": "measles virus (MeV)", "conditions": "result in words; MeV-infected and uninfected Vero cells", "values": [{"substance": "HRIDLGPPISLERLDVGTNLGNAIAKLEAKELLE [SEQ ID NO:77]", "inhibition of viral infection of MeV, including fusion and syncytia formation": "inhibits viral infection"}, {"substance": "IDLGPPISLERLDVGTNLGNAIAKLEAKELLESS [SEQ ID NO:79]", "inhibition of viral infection of MeV, including fusion and syncytia formation": "inhibits viral infection"}, {"substance": "PISLERLDVGTNLGNAIAKLEAKELLESSDQILR [SEQ ID NO:84]", "inhibition of viral infection of MeV, including fusion and syncytia formation": "inhibits viral infection"}]}, {"tested_on": "not given", "conditions": "result in words", "values": [{"substance": "SEQ ID NO:8: analog peptide demonstrated to exhibit anti-viral activity; sequence not printed in the text (CGGNNLLRAIEAQQHLLQLTVWGIKQLQARILAVERYLKDQ)", "anti-viral activity": "exhibit anti-viral activity"}]}, {"tested_on": "simian immunodeficiency virus (SIV)", "conditions": "as crude peptides; result in words", "values": [{"substance": "DFLEENITALLEEAQIQQEKNMYELQKLNSWDVFG [SEQ ID NO:72]", "anti-SIV activity": "potent antiviral activity"}, {"substance": "ERKVDFLEENITALLEEAQIQQEKNMYELQKLNSW [SEQ ID NO:68]", "anti-SIV activity": "potent antiviral activity"}, {"substance": "EWERKVDFLEENITALLEEAQIQQEKNMYELQKLN [SEQ ID NO:66]", "anti-SIV activity": "potent antiviral activity"}, {"substance": "FLEENITALLEEAQIQQEKNMYELQKLNSWDVFGN [SEQ ID NO:73]", "anti-SIV activity": "potent antiviral activity"}, {"substance": "KVDFLEENITALLEEAQIQQEKNMYELQKLNSWDV [SEQ ID NO:70]", "anti-SIV activity": "potent antiviral activity"}, {"substance": "QEWERKVDFLEENITALLEEAQIQQEKNMYELQKL [SEQ ID NO:65]", "anti-SIV activity": "potent antiviral activity"}, {"substance": "RKVDFLEENITALLEEAQIQQEKNMYELQKLNSWD [SEQ ID NO:69]", "anti-SIV activity": "potent antiviral activity"}, {"substance": "VDFLEENITALLEEAQIQQEKNMYELQKLNSWDVF [SEQ ID NO:71]", "anti-SIV activity": "potent antiviral activity"}, {"substance": "WERKVDFLEENITALLEEAQIQQEKNMYELQKLNS [SEQ ID NO:67]", "anti-SIV activity": "potent antiviral activity"}, {"substance": "WQEWERKVDFLEENITALLEEAQIQQEKNMYELQK [SEQ ID NO:64]", "anti-SIV activity": "potent antiviral activity"}]}, {"tested_on": "HPIV-3", "conditions": "HPIV-3-infected Hep2 cells and uninfected CV-1W cells", "values": [{"substance": "NSVALDPIDISIELNKAKSDLEESKEWIRRSNQKL (NNSVALDPIDISIELNKAKSDLEESKEWIRRSNQK) [SEQ ID NO:35, anti-HPIV-3 peptide, DP178-like]", "concentration inhibiting fusion and syncytia formation": "less than 1 μg/ml"}]}, {"tested_on": "HPIV-3", "conditions": "result in words; HPIV3-infected Hep2 cells and uninfected CV-1W cells", "values": [{"substance": "ALDPIDISIELNKAKSDLEESKEWIRRSNQKLDSI (VALDPIDISIELNKAKSDLEESKEWIRRSNQKLDS) [SEQ ID NO:38, anti-HPIV-3 peptide, DP178-like]", "inhibition of viral infection of HPIV3, including fusion and syncytia formation": "inhibits viral infection"}, {"substance": "DPIDISIELNKAKSDLEESKEWIRRSNQKLDSIGN (LDPIDISIELNKAKSDLEESKEWIRRSNQKLDSIG) [SEQ ID NO:40, anti-HPIV-3 peptide, DP178-like]", "inhibition of viral infection of HPIV3, including fusion and syncytia formation": "inhibits viral infection"}, {"substance": "IDISIELNKAKSDLEESKEWIRRSNQKLDSIGNWH (PIDISIELNKAKSDLEESKEWIRRSNQKLDSIGNW) [SEQ ID NO:42, anti-HPIV-3 peptide, DP178-like]", "inhibition of viral infection of HPIV3, including fusion and syncytia formation": "inhibits viral infection"}, {"substance": "LDPIDISIELNKAKSDLEESKEWIRRSNQKLDSIG (ALDPIDISIELNKAKSDLEESKEWIRRSNQKLDSI) [SEQ ID NO:39, anti-HPIV-3 peptide, DP178-like]", "inhibition of viral infection of HPIV3, including fusion and syncytia formation": "inhibits viral infection"}, {"substance": "NSVALDPIDISIELNKAKSDLEESKEWIRRSNQKL (NNSVALDPIDISIELNKAKSDLEESKEWIRRSNQK) [SEQ ID NO:35, anti-HPIV-3 peptide, DP178-like]", "inhibition of viral infection of HPIV3, including fusion and syncytia formation": "inhibits viral infection"}, {"substance": "PIDISIELNKAKSDLEESKEWIRRSNQKLDSIGNW (DPIDISIELNKAKSDLEESKEWIRRSNQKLDSIGN) [SEQ ID NO:41, anti-HPIV-3 peptide, DP178-like]", "inhibition of viral infection of HPIV3, including fusion and syncytia formation": "inhibits viral infection"}, {"substance": "RSDIEKLKEAIRDTNKAVQSVQSSIGNLIVAIKSV [SEQ ID NO:58]", "inhibition of viral infection of HPIV3, including fusion and syncytia formation": "inhibits viral infection"}, {"substance": "VEAKQARSDIEKLKEAIRDTNKAVQSVQSSIGNLI [SEQ ID NO:52]", "inhibition of viral infection of HPIV3, including fusion and syncytia formation": "inhibits viral infection"}]}, {"tested_on": "HIV-1", "conditions": "result in words; listed as DP-107", "values": [{"substance": "NNLLRAIEAQQHLLQLTVWQIKQLQARILAVERYLKDQ [DP107]", "anti-HIV-1 activity (inhibition of HIV-1 infection and fusion)": "potent inhibitors"}]}, {"tested_on": "HIV-1", "conditions": "result in words; listed as DP-178", "values": [{"substance": "enfuvirtide", "anti-HIV-1 activity (inhibition of HIV-1 infection and fusion)": "potent inhibitors"}]}, {"tested_on": "respiratory syncytial virus (RSV)", "conditions": "RSV-infected and uninfected Hep-2 cells", "values": [{"substance": "IALLSTNKAVVSLSNGVSVLTSKVLDLKNYIDK [SEQ ID NO:29, anti-RSV peptide from the F1 region of RSV]", "concentration inhibiting fusion and syncytia formation": "less than 50 μg/ml"}]}, {"tested_on": "respiratory syncytial virus (RSV)", "conditions": "result in words; RSV-infected and uninfected Hep-2 cells", "values": [{"substance": "IALLSTNKAVVSLSNGVSVLTSKVLDLKNYIDK [SEQ ID NO:29, anti-RSV peptide from the F1 region of RSV]", "inhibition of viral infection of RSV, including fusion and syncytia formation": "inhibits viral infection"}, {"substance": "TSVITIELSNIKENKCNGAKVKLIKQELDKYKN (TSVITIELSNIKENKCNGDAKVKLIKQELDKYKN) [SEQ ID NO:15, anti-RSV peptide from the F2 region of RSV]", "inhibition of viral infection of RSV, including fusion and syncytia formation": "inhibits viral infection"}, {"substance": "VITIELSNIKENKCNGAKVKLIKQELDKYKNAV (VITIELSNIKENKCNGDAKVKLIKQELDKYKNAV) [SEQ ID NO:16, anti-RSV peptide from the F2 region of RSV]", "inhibition of viral infection of RSV, including fusion and syncytia formation": "inhibits viral infection"}, {"substance": "YTSVITIELSNIKENKCNGAKVKLIKQELDKYK (YTSVITIELSNIKENKCNGDAKVKLIKQELDKYK) [SEQ ID NO:14, anti-RSV peptide from the F2 region of RSV]", "inhibition of viral infection of RSV, including fusion and syncytia formation": "inhibits viral infection"}]}]}
